This note sets out measurements from ChEMBL document CHEMBL4609995, “Rational design, synthesis and biological profiling of new KDM4C inhibitors” (Bioorg Med Chem, 2020).

In series [1] the test system is P-gp. Put plainly: Efflux ratio of permeability from basolateral to apical over apical to basolateral side in MDCK2-MDR1 cells MDCK2-MDR1 cells at 10 uM incubated for 60 mins in presence 2 uM P-gp inhibitor elacridar by LC-MS/MS analysis. The series is classed as ADME, cell-based, Canis lupus familiaris. To be noted: dog, MDCK-MDR1, with elacridar 2 uM.
Series [2] can be described thus: Substrate activity at P-gp in MDCK2-MDR1 cells at 10 uM incubated for 60 mins in presence or absence of 2 uM P-gp inhibitor elacridar by LC-MS/MS analysis. It is filed as ADME, cell-based, Canis lupus familiaris. The settings on record: dog, mdck-mdr1, 1 h.
For series [3], the system named is A549. Put plainly: Antiproliferative activity against human A549 cells assessed as reduction in cell growth measured after 72 hrs by Alamar blue assay. The series is classed as functional, cell-based. The settings on record: A549, 72 h.
Series [4] has as its system HepG2. As to the kind of experiment: Antiproliferative activity against human HepG2 cells assessed as reduction in cell growth measured after 24 hrs by MTS assay. It is filed as functional, cell-based. To be noted: HepG2, 24 h. (In general: Formazan colour is commonly taken as a measure of viable cells.)
Series [5] is filed under the species Homo sapiens. Put plainly: Selectivity ratio, ratio of IC50 for KDM4A (unknown origin) to IC50 for KDM4C (unknown origin).
In series [6] the target is T1, Lysine-specific demethylase 4C (Homo sapiens, UniProt Q9H3R0).
T1 sequence (Q9H3R0 whole entry): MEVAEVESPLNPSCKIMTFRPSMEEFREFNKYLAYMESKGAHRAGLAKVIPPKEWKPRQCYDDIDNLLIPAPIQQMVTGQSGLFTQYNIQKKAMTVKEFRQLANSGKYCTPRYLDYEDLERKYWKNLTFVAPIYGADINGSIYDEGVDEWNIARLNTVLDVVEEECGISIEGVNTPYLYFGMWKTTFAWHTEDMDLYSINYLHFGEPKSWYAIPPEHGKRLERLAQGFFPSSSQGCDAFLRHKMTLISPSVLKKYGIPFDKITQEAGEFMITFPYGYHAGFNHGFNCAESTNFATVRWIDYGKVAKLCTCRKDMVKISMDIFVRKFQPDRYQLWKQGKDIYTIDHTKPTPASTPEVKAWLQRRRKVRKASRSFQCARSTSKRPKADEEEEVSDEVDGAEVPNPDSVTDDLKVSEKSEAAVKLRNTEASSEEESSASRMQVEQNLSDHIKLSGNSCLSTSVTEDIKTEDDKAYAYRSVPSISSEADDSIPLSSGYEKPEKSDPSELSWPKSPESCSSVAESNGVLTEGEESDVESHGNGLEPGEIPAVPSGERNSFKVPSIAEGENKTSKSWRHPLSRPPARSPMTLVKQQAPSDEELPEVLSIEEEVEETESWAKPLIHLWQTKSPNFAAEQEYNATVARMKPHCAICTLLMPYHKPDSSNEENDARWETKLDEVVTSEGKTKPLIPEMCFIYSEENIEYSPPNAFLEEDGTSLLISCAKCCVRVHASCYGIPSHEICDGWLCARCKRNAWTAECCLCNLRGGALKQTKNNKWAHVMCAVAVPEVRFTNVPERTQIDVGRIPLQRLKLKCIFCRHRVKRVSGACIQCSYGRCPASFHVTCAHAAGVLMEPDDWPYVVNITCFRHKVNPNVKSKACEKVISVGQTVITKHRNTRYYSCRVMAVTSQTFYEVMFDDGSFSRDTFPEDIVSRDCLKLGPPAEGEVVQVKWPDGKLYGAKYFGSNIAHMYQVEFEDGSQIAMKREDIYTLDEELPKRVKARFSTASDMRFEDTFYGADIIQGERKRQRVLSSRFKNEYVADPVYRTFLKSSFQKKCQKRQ
As to the kind of experiment: Inhibition of KDM4C (unknown origin).

In series [7] the test system is P-gp. As to the kind of experiment: Permeability across apical to basolateral side in MDCK2-MDR1 cells at 10 uM incubated for 60 mins in presence 2 uM P-gp inhibitor elacridar by LC-MS/MS analysis. It is filed as ADME, cell-based, Canis lupus familiaris. The settings on record: dog, MDCK-MDR1, with elacridar 2 uM; read-out: permeability.
Series [8] is described as follows: Intrinsic clearance in mouse liver microsomes assessed per mg protein at 1 uM measured up to 60 mins in presence or absence of NADPH by LC-MS/MS analysis. To be noted: liver microsomes, read-out: CLH. The series is classed as ADME, Microsome. (Liver microsomes are a subcellular fraction often used to study metabolism.)
Series [9] addresses T1, Lysine-specific demethylase 4C. Put plainly: Inhibition of KDM4C (unknown origin) using methylated H3 peptide as substrate by chemiluminescence assay. The settings on record: read-out: IC50.
The target in series [10] is T2, Lysine-specific demethylase 4A (Homo sapiens, UniProt O75164).
T2 sequence (O75164 whole entry): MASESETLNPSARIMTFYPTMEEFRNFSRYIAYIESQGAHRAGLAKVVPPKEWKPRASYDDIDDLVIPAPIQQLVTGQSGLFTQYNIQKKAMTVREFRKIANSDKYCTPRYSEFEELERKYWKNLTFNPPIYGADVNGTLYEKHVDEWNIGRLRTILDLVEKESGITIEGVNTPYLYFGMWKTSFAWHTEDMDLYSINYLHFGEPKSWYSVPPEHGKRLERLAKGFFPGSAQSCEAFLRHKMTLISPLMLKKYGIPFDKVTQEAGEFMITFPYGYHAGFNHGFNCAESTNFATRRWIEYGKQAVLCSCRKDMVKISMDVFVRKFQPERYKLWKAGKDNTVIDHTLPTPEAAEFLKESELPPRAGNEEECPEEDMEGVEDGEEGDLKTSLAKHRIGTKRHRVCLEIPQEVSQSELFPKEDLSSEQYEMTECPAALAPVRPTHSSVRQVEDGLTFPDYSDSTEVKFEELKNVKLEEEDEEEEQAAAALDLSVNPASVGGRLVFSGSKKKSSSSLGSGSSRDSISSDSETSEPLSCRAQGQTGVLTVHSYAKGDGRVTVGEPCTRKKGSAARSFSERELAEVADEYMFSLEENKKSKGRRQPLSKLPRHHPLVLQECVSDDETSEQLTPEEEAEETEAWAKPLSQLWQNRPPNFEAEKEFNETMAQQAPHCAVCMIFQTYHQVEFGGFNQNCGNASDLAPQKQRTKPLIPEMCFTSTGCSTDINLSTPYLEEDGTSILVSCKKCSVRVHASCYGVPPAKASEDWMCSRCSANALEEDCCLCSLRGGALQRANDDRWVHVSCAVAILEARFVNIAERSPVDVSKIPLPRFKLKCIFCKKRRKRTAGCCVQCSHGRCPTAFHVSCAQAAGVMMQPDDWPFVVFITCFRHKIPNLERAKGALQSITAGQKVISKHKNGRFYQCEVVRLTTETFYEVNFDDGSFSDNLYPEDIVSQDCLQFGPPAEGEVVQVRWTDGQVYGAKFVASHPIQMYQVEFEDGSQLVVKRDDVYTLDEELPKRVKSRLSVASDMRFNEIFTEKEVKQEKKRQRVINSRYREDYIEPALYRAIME
Put plainly: Inhibition of KDM4A (unknown origin).

The efflux ratio is a quotient of directional permeabilities that is used to spot active efflux. By IC50 is commonly meant the point on the concentration scale where inhibition reaches its midpoint. For the compound `Cn1ncnc2c(=O)n(C)c(=O)nc1-2`, the efflux ratio at 1 h, 10 µM in series [1] was less than 2. The Activity result in series [2] is recorded as “Not Active”. Moreover, the IC50 in series [3] turned out to be 22 nM; in [4], 4500 nM; in series [6], 500 nM; in series [9], 541 nM; in series [10], 2500 nM. For the same compound, the Ratio IC50 in series [5] came out at 5. Besides, the Papp A→B at 1 h, 10 µM in [7] came out at 16 ×10⁻⁶ cm/s. Moreover, the microsomal CLint at 1 µM in [8] was less than 12.5 µL/min/mg.
